From patent US20240270809A1, “ORAL GLP RECEPTOR AGONISTS” (priority 2020, published 2024)
Positions of bridges follow the written chain, without caps; N, C: chain ends. Non-standard residues stand in square brackets, D forms with d. Residues, ends and D or L forms follow the SMILES beside them. *: point of attachment. Malonyl(2,2-Me2,histaminyl) = CC(C)(C(=O)NCCc1cnc[nH]1)C(=O)*; Ala(1H-tetrazol-5-yl) = N[C@@H](Cc1nnn[nH]1)C(=O)O; αMeL = CC(C)C[C@](C)(N)C(=O)O; Nle = CCCC[C@H](N)C(=O)O; Aib = CC(C)(N)C(=O)O

Columns and labels:
[1] = biological target: T1, human GLP2 receptor (Homo sapiens, UniProt O95838); experiment: cAMP accumulation assay, functional agonism of human GLP2 receptor; type: cell-based; conditions: HEK cells infected with human GLP2 receptor BacMam virus, HTRF cAMP; for Emax: HEK293, read-out: Human GLP-2R agonist cAMP Emax; for EC50: read-out: Human GLP-2R agonist cAMP pEC50 (converted)
T1 construct: expressed in transfected cells; host or cells: HEK cells, BacMam virus transduction
T1 sequence (O95838 1-553): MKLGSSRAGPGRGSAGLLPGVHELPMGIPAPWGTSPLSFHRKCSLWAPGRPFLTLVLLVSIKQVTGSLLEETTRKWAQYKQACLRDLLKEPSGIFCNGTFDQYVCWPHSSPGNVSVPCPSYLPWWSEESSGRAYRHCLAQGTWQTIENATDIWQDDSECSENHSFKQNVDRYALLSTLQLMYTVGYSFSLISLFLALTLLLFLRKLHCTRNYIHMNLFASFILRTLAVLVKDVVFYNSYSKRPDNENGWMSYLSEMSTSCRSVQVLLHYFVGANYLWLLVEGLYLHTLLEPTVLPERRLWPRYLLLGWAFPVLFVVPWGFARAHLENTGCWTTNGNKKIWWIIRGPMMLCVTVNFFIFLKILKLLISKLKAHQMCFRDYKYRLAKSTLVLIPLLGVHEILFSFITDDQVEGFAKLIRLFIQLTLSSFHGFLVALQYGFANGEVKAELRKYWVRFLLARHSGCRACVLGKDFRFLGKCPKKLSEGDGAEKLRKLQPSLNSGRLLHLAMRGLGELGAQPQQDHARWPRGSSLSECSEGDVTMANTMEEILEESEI
Procedure, shortened: (§1)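 cAMP read by HTRF detection reagents in lysis buffer following 45 min agonist exposure at 37 °C. Cells: frozen HEK transduced for 24 h with GLP1 or GLP2 receptor BacMam, suspended in HBSS plus 0.5 mM IBMX.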

[2] = biological target: T2, human GLP1 receptor (Homo sapiens, UniProt P43220); experiment: cAMP accumulation assay, functional agonism of human GLP1 receptor; type: cell-based; conditions: HEK cells infected with human GLP1 receptor BacMam virus, HTRF cAMP; for Emax: HEK293, read-out: Human GLP-1R agonist cAMP Emax; for EC50: read-out: Human GLP-1R agonist cAMP pEC50 (converted)
T2 construct: expressed in transfected cells; host or cells: HEK cells, BacMam virus transduction
Procedure, shortened: as §1

[3] = Stability of peptides in Fasted-State Simulated Intestinal Fluid (FaSSIF); type: in vitro ADME; conditions: FaSSIF with 10 mg/ml pancreatin, 37° C.; for remaining at 0.25 h: FaSSIF pH 6.5 with 10 mg/ml pancreatin, t = 15 mins

T2 sequence (P43220 24-463): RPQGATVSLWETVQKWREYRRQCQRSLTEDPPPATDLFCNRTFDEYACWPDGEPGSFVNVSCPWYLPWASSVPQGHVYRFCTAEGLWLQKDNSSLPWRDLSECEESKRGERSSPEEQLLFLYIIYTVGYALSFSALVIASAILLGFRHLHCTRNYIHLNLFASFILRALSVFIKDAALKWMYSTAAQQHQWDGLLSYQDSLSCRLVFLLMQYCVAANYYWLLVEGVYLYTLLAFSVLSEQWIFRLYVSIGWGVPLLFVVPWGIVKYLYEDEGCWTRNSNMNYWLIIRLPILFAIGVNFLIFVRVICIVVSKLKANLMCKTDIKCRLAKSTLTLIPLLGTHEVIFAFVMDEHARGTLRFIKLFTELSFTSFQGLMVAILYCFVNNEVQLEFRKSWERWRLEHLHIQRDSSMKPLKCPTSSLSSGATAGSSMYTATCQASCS

Row | SMILES | Emax [1] | EC50 [1] | Emax [2] | EC50 [2] | remaining at 0.25 h [3] | remaining at 0.5 h ([3]; t=30 mins, pH 6.5, 10 mg/ml pancreatin)
1 | CCCC[C@H](NC(=O)[C@H](CCC(=O)O)NC(=O)[C@H](CC(=O)O)NC(=O)[C@H](CO)NC(=O)[C@H](Cc1ccccc1)NC(=O)[C@H](CO)NC(=O)CNC(=O)[C@H](Cc1nn[nH]n1)NC(=O)C(C)(C)C(=O)NCCc1c[nH]cn1)C(=O)N[C@H](Cc1ccccc1)C(=O)N[C@H]1CCCCNC(=O)C[C@@H](C(=O)N[C@@H](CCCCN)C(=O)N[C@@H](C)C(=O)N[C@@H](C)C(=O)NC(C)(C)C(=O)N[C@@H](CC(=O)O)C(=O)N[C@@H](Cc2ccccc2)C(=O)N[C@H](C(=O)N[C@@H](CC(N)=O)C(=O)N[C@@H](Cc2c[nH]c3ccccc23)C(=O)N[C@@H](CC(C)C)C(=O)N[C@H](C(=O)N[C@@H](CCC(N)=O)C(=O)N[C@H](C(=O)N[C@H]2CCC(=O)NCCCC[C@@H](C(N)=O)NC(=O)[C@H]([C@@H](C)O)NC(=O)[C@H]([C@@H](C)CC)NC2=O)[C@@H](C)O)[C@@H](C)CC)[C@@H](C)CC)NC(=O)[C@H](CC(=O)O)NC(=O)[C@H](CC(C)C)NC(=O)[C@H]([C@@H](C)CC)NC1=O [Example 109] ({Malonyl(2,2-Me2,histaminyl)}-[Ala(1H-tetrazol-5-yl)]GSFSDE[Nle][dF]KILDDKAA[Aib]DFINWLIQTEITK-NH2; lactam 10-14, 28-31) | 102% | 0.00794 nM | 97% | 0.0251 nM | 4.6% | –
2 | CCCC[C@H](NC(=O)[C@H](CCC(=O)O)NC(=O)[C@@H]1CCCCNC(=O)CC[C@H](NC(=O)[C@H](CC(=O)O)NC(=O)C(C)(C)NC(=O)[C@@H](N)Cc2c[nH]cn2)C(=O)N[C@@H](CO)C(=O)N[C@@H](Cc2ccccc2)C(=O)N[C@@H](CO)C(=O)N1)C(=O)N[C@H](Cc1ccccc1)C(=O)N[C@H](C(=O)N[C@H](C(=O)N[C@@H](CC(C)C)C(=O)N[C@@H](CC(=O)O)C(=O)N[C@H]1CCCCNC(=O)C[C@@H](C(=O)N[C@@H](CC(=O)O)C(=O)N[C@@H](Cc2ccccc2)C(=O)N[C@H](C(=O)N[C@@H](CC(N)=O)C(=O)N[C@@H](Cc2c[nH]c3ccccc23)C(=O)N[C@@H](CC(C)C)C(=O)N[C@H](C(=O)N[C@@H](CCC(N)=O)C(=O)N[C@H](C(=O)N[C@@H](CCCCN)C(=O)N[C@H](C(=O)N[C@H](C(=O)N[C@@H](CC(=O)O)C(N)=O)[C@@H](C)O)[C@@H](C)CC)[C@@H](C)O)[C@@H](C)CC)[C@@H](C)CC)NC(=O)[C@H](C)NC(=O)[C@H](C)NC(=O)[C@H](CCCCN)NC1=O)[C@@H](C)CC)[C@@H](C)O [Example 110] (H-H[Aib]DESFSKE[Nle][dF]TILDKKAADDFINWLIQTKITD-NH2; lactam 4-8, 16-20; N-terminus and C-terminus assumed) | 103% | 0.0158 nM | 88.1% | 3.98 nM | 5% | –
3 | CCCC[C@H](NC(=O)[C@H](CCC(=O)O)NC(=O)[C@H](CC(=O)O)NC(=O)[C@H](CO)NC(=O)[C@H](Cc1ccccc1)NC(=O)[C@H](CO)NC(=O)CNC(=O)[C@H](Cc1nn[nH]n1)NC(=O)C(C)(C)C(=O)NCCc1c[nH]cn1)C(=O)N[C@H](Cc1ccccc1)C(=O)N[C@H]1CCCCNC(=O)C[C@@H](C(=O)N[C@@H](CCCCN)C(=O)N[C@@H](C)C(=O)N[C@@H](C)C(=O)N[C@@H](CCCCN)C(=O)N[C@@H](CC(=O)O)C(=O)N[C@@H](Cc2ccccc2)C(=O)N[C@H](C(=O)N[C@@H](CC(N)=O)C(=O)N[C@@H](Cc2c[nH]c3ccccc23)C(=O)N[C@@H](CC(C)C)C(=O)N[C@H](C(=O)N[C@@H](CCC(N)=O)C(=O)N[C@H](C(=O)N[C@@H](CCCCN)C(=O)N[C@H](C(=O)N[C@H](C(=O)N[C@@H](Cc2ccccc2)C(N)=O)[C@@H](C)O)[C@@H](C)CC)[C@@H](C)O)[C@@H](C)CC)[C@@H](C)CC)NC(=O)[C@H](CC(=O)O)NC(=O)[C@H](CC(C)C)NC(=O)[C@H]([C@@H](C)CC)NC1=O [Example 91] ({Malonyl(2,2-Me2,histaminyl)}-[Ala(1H-tetrazol-5-yl)]GSFSDE[Nle][dF]KILDDKAAKDFINWLIQTKITF-NH2; lactam 10-14) | 104% | 0.01 nM | 98.8% | 0.251 nM | 8.8% | –
4 | CCCC[C@H](NC(=O)[C@H](CCC(=O)O)NC(=O)[C@H](CC(=O)O)NC(=O)[C@H](CO)NC(=O)[C@H](Cc1ccccc1)NC(=O)[C@H](CO)NC(=O)CNC(=O)[C@H](Cc1nn[nH]n1)NC(=O)C(C)(C)C(=O)NCCc1c[nH]cn1)C(=O)N[C@H](Cc1ccccc1)C(=O)N[C@H]1CCCCNC(=O)C[C@@H](C(=O)N[C@@H](CCCCN)C(=O)N[C@@H](C)C(=O)N[C@@H](C)C(=O)N[C@@H](CCCCN)C(=O)N[C@@H](CC(=O)O)C(=O)N[C@@H](Cc2ccccc2)C(=O)N[C@H](C(=O)N[C@@H](CC(N)=O)C(=O)N[C@@H](Cc2c[nH]c3ccccc23)C(=O)N[C@@H](CC(C)C)C(=O)N[C@H](C(=O)N[C@@H](CCC(N)=O)C(=O)N[C@H](C(=O)N[C@H]2CCC(=O)NCCCC[C@@H](C(N)=O)NC(=O)[C@H]([C@@H](C)O)NC(=O)[C@H]([C@@H](C)CC)NC2=O)[C@@H](C)O)[C@@H](C)CC)[C@@H](C)CC)NC(=O)[C@H](CC(=O)O)NC(=O)[C@H](CC(C)C)NC(=O)[C@H]([C@@H](C)CC)NC1=O [Example 105] ({Malonyl(2,2-Me2,histaminyl)}-[Ala(1H-tetrazol-5-yl)]GSFSDE[Nle][dF]KILDDKAAKDFINWLIQTEITK-NH2; lactam 10-14, 28-31 (inferred); C-terminus assumed) | 101% | 0.0251 nM | 97.4% | 0.0251 nM | 1.6% | –
5 | CCCC[C@@H]1NC(=O)[C@H](CCC(=O)O)NC(=O)[C@@H](NC(=O)[C@H](CO)NC(=O)[C@H](Cc2ccccc2)NC(=O)[C@H](CO)NC(=O)CNC(=O)[C@H](Cc2nn[nH]n2)NC(=O)C(C)(C)C(=O)NCCc2c[nH]cn2)CCCCNC(=O)C[C@@H](C(=O)N[C@@](C)(CC(C)C)C(=O)N[C@@H](CC(C)C)C(=O)N[C@@H](CC(=O)O)C(=O)N[C@H]2CCC(=O)NCCCC[C@@H](C(=O)N[C@@H](CC(=O)O)C(=O)N[C@@H](Cc3ccccc3)C(=O)N[C@H](C(=O)N[C@@H](CC(N)=O)C(=O)N[C@@H](Cc3c[nH]c4ccccc34)C(=O)N[C@@H](CC(C)C)C(=O)N[C@H](C(=O)N[C@@H](CCC(N)=O)C(=O)N[C@H](C(=O)N[C@H]3CCC(=O)NCCCC[C@@H](C(N)=O)NC(=O)[C@H]([C@@H](C)O)NC(=O)[C@H]([C@@H](C)CC)NC3=O)[C@@H](C)O)[C@@H](C)CC)[C@@H](C)CC)NC(=O)[C@H](C)NC(=O)[C@H](C)NC(=O)[C@H](CCCCN)NC2=O)NC(=O)[C@@H](Cc2ccccc2)NC1=O [Example 11] ({Malonyl(2,2-Me2,histaminyl)}-[Ala(1H-tetrazol-5-yl)]GSFSKE[Nle][dF]D[αMeL]LDEKAAKDFINWLIQTEITK-NH2; lactam 6-10, 14-18, 28-31 (inferred); C-terminus assumed) | 105% | 0.0794 nM | 95.3% | 0.251 nM | – | 22.3%
6 | CCCC[C@H](NC(=O)[C@H](CCC(=O)O)NC(=O)[C@H](CC(=O)O)NC(=O)[C@H](CO)NC(=O)[C@H](Cc1ccccc1)NC(=O)[C@H](CO)NC(=O)CNC(=O)[C@H](Cc1nn[nH]n1)NC(=O)C(C)(C)C(=O)NCCc1c[nH]cn1)C(=O)N[C@H](Cc1ccccc1)C(=O)N[C@H](C(=O)N[C@H](C(=O)N[C@@H](CC(C)C)C(=O)N[C@@H](CC(=O)O)C(=O)N[C@H]1CCC(=O)NCCCC[C@@H](C(=O)N[C@@H](CC(=O)O)C(=O)N[C@@H](Cc2ccccc2)C(=O)N[C@H](C(=O)N[C@@H](CC(N)=O)C(=O)N[C@@H](Cc2c[nH]c3ccccc23)C(=O)N[C@@H](CC(C)C)C(=O)N[C@H](C(=O)N[C@@H](CCC(N)=O)C(=O)N[C@H](C(=O)N[C@H]2CCC(=O)NCCCC[C@@H](C(N)=O)NC(=O)[C@H]([C@@H](C)O)NC(=O)[C@H]([C@@H](C)CC)NC2=O)[C@@H](C)O)[C@@H](C)CC)[C@@H](C)CC)NC(=O)[C@H](C)NC(=O)[C@H](C)NC(=O)[C@H](CCCCN)NC1=O)[C@@H](C)CC)[C@@H](C)O [Example 107] ({Malonyl(2,2-Me2,histaminyl)}-[Ala(1H-tetrazol-5-yl)]GSFSDE[Nle][dF]TILDEKAAKDFINWLIQTEITK-NH2; lactam 14-18, 28-31) | 101% | 0.02 nM | 96.9% | 0.02 nM | 7.4% | –
